Experimental data from PMC8391575, “Identification of Novel Cathepsin B Inhibitors with Implications in Alzheimer’s Disease: Computational Refining and Biochemical Evaluation” (Cells, 2021).
Read-outs that look alike come from different tables or passages of the source. Each block holds one molecule with its values, some of them ahead of it.

Columns and labels:
AD animal models = conditions: cited from earlier work
cathepsin B = conditions: cited from earlier work; for pIC50 Experimental: Table 4
human cathepsin B = molecular target: T1, human cathepsin B (Homo sapiens, UniProt P07858); experiment: Cathepsin B inhibitory assay, fluorometric kit (ab185438), AFC substrate; type: biochemical; conditions: 10 µM
T1 construct: purchased ab185438
Description: Cathepsin B inhibitory assay was performed using a fluorometric-based assay kit as per company instructions (ab185438). The assay kit utilizes the ability of cathepsin B to cleave synthetic AFC (7-Amino-4-trifluoromethyl coumarin) substrate to freely release AFC; moreover, this AFC can be quantified by a fluorometer. In the presence of cathepsin B inhibitors, the cleavage of the substrate was reduced, and there was a decrease in the total loss of the AFC fluorescence. The experiments were performed in triplicate. The test compounds (virtual screened hits) were prepared in different concentrations of 2.5, 5.0, 10.0, 15.0, and 20.0 µM. […] Next, fluorescence was measured in a kinetic mode for 30–60 min at 37 °C (Ex/Em = 400/505). Two timepoints were used—0 and 15 min (ΔT = T2 − T1)—and corresponding values for the fluorescence (ΔRFU = RFU2-RFU1) were used to calculate the slope for all test inhibitor samples and EC, by dividing the net ΔRFU values by the time ΔT. The percentage of relative inhibition was calculated using the following formula: % Relative Inhibition=Slope of EC−Slope of Sample /Slope of EC×100

[1] = Figure 1, previously reported inhibitors of cathepsin B, read-out: IC50
[2] = class of the experimental IC50, read-out: Activity Scale Experimental
[3] = Table S1, read-out: IC50: half maximal inhibitory concentration

Molecule: CCOC(=O)[C@H]1O[C@@H]1C(=O)N[C@@H](CC(C)C)C(=O)NCCC(C)C [Compound N20, ethyl (2S,3S)-3-[[(2S)-4-methyl-1-(3-methylbutylamino)-1-oxopentan-2-yl]carbamoyl]oxirane-2-carboxylate]
- Aβ in the brain (AD animal models): reduces Aβ in the brain
- memory deficits (AD animal models): improves memory deficits
- IC50 (cathepsin B; [1]): 14 nM
- pIC50 Experimental (cathepsin B): 8.47
- IC50 (cathepsin B; [2]): < 300 nM

Molecule: COc1ccc(S(=O)(=O)n2nc(OC(=O)c3cccs3)cc2N)cc1 [Compound S31, [5-amino-1-(4-methoxyphenyl)sulfonylpyrazol-3-yl] thiophene-2-carboxylate]
- pIC50 Experimental (cathepsin B): 6.16
- IC50 (cathepsin B; [2]): 300 to 2500 nM

Molecule: Nc1cc(OC(=O)c2cccs2)nn1S(=O)(=O)c1ccc(F)cc1 [Compound S32, [5-amino-1-(4-fluorophenyl)sulfonylpyrazol-3-yl] thiophene-2-carboxylate]
- pIC50 Experimental (cathepsin B): 6.36
- IC50 (cathepsin B; [2]): 300 to 2500 nM

Molecule: CC(=O)OC1(C(F)(F)F)Oc2ccccc2NC1=O (stereo not shown) [Compound S33, [3-oxo-2-(trifluoromethyl)-4H-1,4-benzoxazin-2-yl] acetate]
- pIC50 Experimental (cathepsin B): 6.07
- IC50 (cathepsin B; [2]): 300 to 2500 nM

Molecule: Nc1cc(OC(=O)c2cccs2)nn1S(=O)(=O)c1ccccc1 [Compound S34, [5-amino-1-(benzenesulfonyl)pyrazol-3-yl] thiophene-2-carboxylate]
- pIC50 Experimental (cathepsin B): 6.61
- IC50 (cathepsin B; [2]): < 300 nM

Molecule: O=C(CNC(=O)c1ccco1)OCN1C(=O)c2ccccc2C1=O [Compound S35, (1,3-dioxoisoindol-2-yl)methyl 2-(furan-2-carbonylamino)acetate]
- pIC50 Experimental (cathepsin B): 5.07
- IC50 (cathepsin B; [2]): > 2500 nM

Molecule: COc1ccc(C(=O)C(OC(=O)CNC(=O)c2ccco2)c2ccccc2)cc1 (stereo not shown) [Compound S36, [2-(4-methoxyphenyl)-2-oxo-1-phenylethyl] 2-(furan-2-carbonylamino)acetate]
- pIC50 Experimental (cathepsin B): 4.74
- IC50 (cathepsin B; [2]): > 2500 nM

Molecule: O=C(CSc1nnc(-c2ccco2)c(-c2ccco2)n1)Nc1ccccc1 [Compound S37, 2-[[5,6-bis(furan-2-yl)-1,2,4-triazin-3-yl]sulfanyl]-N-phenylacetamide]
- pIC50 Experimental (cathepsin B): 5.65
- IC50 (cathepsin B; [2]): 300 to 2500 nM

Molecule: CCOC(=O)[C@@H]1O[C@H]1C(=O)N[C@@H](CC(C)C)C(=O)N1CCN(Cc2ccc(OC)c(OC)c2OC)CC1 [Compound S39, ethyl(2R,3R)-3-[[(2S)-4-methyl-1-oxo-1-[4-[(2,3,4-trimethoxyphenyl)methyl]piperazin-1-yl]pentan-2-yl]carbamoyl]oxirane-2-carboxylate; sulfuric acid]
- pIC50 Experimental (cathepsin B): 6.09
- IC50 (cathepsin B; [3]): 800 nM
- IC50 (cathepsin B; [2]): 300 to 2500 nM

Molecule: O=c1cc(-c2ccc(Oc3c(O)cc4oc(-c5ccc(O)cc5)cc(=O)c4c3O)cc2)oc2cc(O)cc(O)c12 [HIF, Hinokiflavone]
- IC50 (cathepsin B; [1]): 580 nM

- relative inhibition (human cathepsin B): 69.67%
Molecule: F-F-FMK
